Measurements from the NIST ThermoML archive (doi:10.1021/acs.jced.7b01125).
± gives the expanded uncertainty stated by the source.

Test: xn = mol fraction of the nth substance listed
Conditions: Gas, Buoyancy - hydrostatic balance with magnetic suspension - one sinker

## [HH] [hydrogen] + C
275.01 K, 5005 kPa, x2 = 0.9
  mass density: 35.103 ± 0.047 kg/m3
275.01 K, 6005 kPa, x2 = 0.9
  mass density: 42.849 ± 0.049 kg/m3
275.01 K, 6005 kPa, x2 = 0.9499
  mass density: 45.691 ± 0.052 kg/m3
275.01 K, 7005 kPa, x2 = 0.9
  mass density: 50.825 ± 0.051 kg/m3
275.01 K, 7005 kPa, x2 = 0.9499
  mass density: 54.384 ± 0.054 kg/m3
275.01 K, 8002 kPa, x2 = 0.9
  mass density: 58.973 ± 0.052 kg/m3
275.01 K, 8003 kPa, x2 = 0.9499
  mass density: 63.333 ± 0.055 kg/m3
275.01 K, 9002 kPa, x2 = 0.9
  mass density: 67.322 ± 0.054 kg/m3
275.01 K, 9003 kPa, x2 = 0.9499
  mass density: 72.54 ± 0.057 kg/m3
275.01 K, 10005 kPa, x2 = 0.9
  mass density: 75.811 ± 0.055 kg/m3
275.01 K, 10006 kPa, x2 = 0.9499
  mass density: 81.955 ± 0.059 kg/m3
275.01 K, 11001 kPa, x2 = 0.4997
  mass density: 43.883 ± 0.061 kg/m3
275.01 K, 11005 kPa, x2 = 0.9499
  mass density: 91.455 ± 0.06 kg/m3
275.01 K, 11006 kPa, x2 = 0.9
  mass density: 84.369 ± 0.057 kg/m3
275.01 K, 12007 kPa, x2 = 0.9
  mass density: 92.928 ± 0.058 kg/m3
275.01 K, 12009 kPa, x2 = 0.9499
  mass density: 101.013 ± 0.061 kg/m3
275.01 K, 13009 kPa, x2 = 0.9
  mass density: 101.458 ± 0.059 kg/m3
275.01 K, 13011 kPa, x2 = 0.9499
  mass density: 110.507 ± 0.062 kg/m3
275.01 K, 14003 kPa, x2 = 0.4997
  mass density: 55.493 ± 0.077 kg/m3
275.01 K, 14006 kPa, x2 = 0.9
  mass density: 109.837 ± 0.06 kg/m3
275.01 K, 14006 kPa, x2 = 0.9499
  mass density: 119.787 ± 0.062 kg/m3
275.01 K, 15000 kPa, x2 = 0.4997
  mass density: 59.259 ± 0.082 kg/m3
275.01 K, 15008 kPa, x2 = 0.9
  mass density: 118.086 ± 0.06 kg/m3
275.01 K, 15018 kPa, x2 = 0.9499
  mass density: 128.986 ± 0.062 kg/m3
275.01 K, 16003 kPa, x2 = 0.9
  mass density: 126.067 ± 0.061 kg/m3
275.01 K, 16005 kPa, x2 = 0.4997
  mass density: 63.009 ± 0.086 kg/m3
275.01 K, 16016 kPa, x2 = 0.9499
  mass density: 137.753 ± 0.062 kg/m3
275.01 K, 17006 kPa, x2 = 0.4997
  mass density: 66.693 ± 0.091 kg/m3
275.01 K, 17009 kPa, x2 = 0.9
  mass density: 133.878 ± 0.061 kg/m3
275.01 K, 17010 kPa, x2 = 0.9499
  mass density: 146.15 ± 0.062 kg/m3
275.01 K, 18001 kPa, x2 = 0.4997
  mass density: 70.294 ± 0.096 kg/m3
275.01 K, 18006 kPa, x2 = 0.9
  mass density: 141.344 ± 0.06 kg/m3
275.01 K, 19020 kPa, x2 = 0.9499
  mass density: 161.966 ± 0.061 kg/m3
275.01 K, 19297 kPa, x2 = 0.4997
  mass density: 74.901 ± 0.1 kg/m3
275.01 K, 19909 kPa, x2 = 0.9499
  mass density: 168.44 ± 0.061 kg/m3
275.02 K, 18019 kPa, x2 = 0.9499
  mass density: 154.292 ± 0.062 kg/m3
275.02 K, 19012 kPa, x2 = 0.9
  mass density: 148.567 ± 0.061 kg/m3
275.02 K, 19897 kPa, x2 = 0.9
  mass density: 154.661 ± 0.071 kg/m3
299.95 K, 3999 kPa, x2 = 0.9
  mass density: 24.698 ± 0.042 kg/m3
299.95 K, 16003 kPa, x2 = 0.9
  mass density: 107.531 ± 0.053 kg/m3
299.96 K, 999 kPa, x2 = 0.9
  mass density: 5.941 ± 0.039 kg/m3
299.96 K, 999 kPa, x2 = 0.9499
  mass density: 6.241 ± 0.04 kg/m3
299.96 K, 1999 kPa, x2 = 0.9
  mass density: 12.047 ± 0.04 kg/m3
299.96 K, 2000 kPa, x2 = 0.9499
  mass density: 12.675 ± 0.041 kg/m3
299.96 K, 2983 kPa, x2 = 0.9499
  mass density: 19.18 ± 0.042 kg/m3
299.96 K, 2990 kPa, x2 = 0.9
  mass density: 18.241 ± 0.041 kg/m3
299.96 K, 3999 kPa, x2 = 0.9499
  mass density: 26.096 ± 0.043 kg/m3
299.96 K, 4999 kPa, x2 = 0.9
  mass density: 31.243 ± 0.043 kg/m3
299.96 K, 4999 kPa, x2 = 0.9499
  mass density: 33.078 ± 0.045 kg/m3
299.96 K, 5999 kPa, x2 = 0.9
  mass density: 37.914 ± 0.044 kg/m3
299.96 K, 6000 kPa, x2 = 0.9499
  mass density: 40.236 ± 0.046 kg/m3
299.96 K, 6999 kPa, x2 = 0.9
  mass density: 44.708 ± 0.045 kg/m3
299.96 K, 7000 kPa, x2 = 0.9499
  mass density: 47.554 ± 0.048 kg/m3
299.96 K, 8001 kPa, x2 = 0.9
  mass density: 51.609 ± 0.046 kg/m3
299.96 K, 8001 kPa, x2 = 0.9499
  mass density: 55.012 ± 0.048 kg/m3
299.96 K, 9002 kPa, x2 = 0.9
  mass density: 58.59 ± 0.047 kg/m3
299.96 K, 9003 kPa, x2 = 0.9499
  mass density: 62.59 ± 0.049 kg/m3
299.96 K, 10003 kPa, x2 = 0.9
  mass density: 65.636 ± 0.049 kg/m3
299.96 K, 10004 kPa, x2 = 0.9499
  mass density: 70.258 ± 0.051 kg/m3
299.96 K, 11001 kPa, x2 = 0.9499
  mass density: 77.955 ± 0.052 kg/m3
299.96 K, 11003 kPa, x2 = 0.9
  mass density: 72.706 ± 0.049 kg/m3
299.96 K, 12002 kPa, x2 = 0.9
  mass density: 79.763 ± 0.05 kg/m3
299.96 K, 12003 kPa, x2 = 0.9499
  mass density: 85.693 ± 0.053 kg/m3
299.96 K, 13002 kPa, x2 = 0.9
  mass density: 86.81 ± 0.051 kg/m3
299.96 K, 13003 kPa, x2 = 0.9499
  mass density: 93.405 ± 0.053 kg/m3
299.96 K, 14003 kPa, x2 = 0.9
  mass density: 93.813 ± 0.052 kg/m3
299.96 K, 14006 kPa, x2 = 0.9499
  mass density: 101.077 ± 0.054 kg/m3
299.96 K, 15004 kPa, x2 = 0.9499
  mass density: 108.622 ± 0.055 kg/m3
299.96 K, 15005 kPa, x2 = 0.9
  mass density: 100.739 ± 0.053 kg/m3
299.96 K, 16005 kPa, x2 = 0.9499
  mass density: 116.045 ± 0.054 kg/m3
299.96 K, 17007 kPa, x2 = 0.9
  mass density: 114.233 ± 0.053 kg/m3
299.96 K, 17007 kPa, x2 = 0.9499
  mass density: 123.312 ± 0.055 kg/m3
299.96 K, 18003 kPa, x2 = 0.9
  mass density: 120.727 ± 0.054 kg/m3
299.96 K, 18007 kPa, x2 = 0.9499
  mass density: 130.371 ± 0.055 kg/m3
299.96 K, 18999 kPa, x2 = 0.9499
  mass density: 137.175 ± 0.058 kg/m3
299.96 K, 19011 kPa, x2 = 0.9
  mass density: 127.134 ± 0.055 kg/m3
299.96 K, 19426 kPa, x2 = 0.9499
  mass density: 140.03 ± 0.044 kg/m3
299.96 K, 19795 kPa, x2 = 0.9
  mass density: 131.987 ± 0.064 kg/m3
324.96 K, 999 kPa, x2 = 0.9
  mass density: 5.467 ± 0.037 kg/m3
324.96 K, 1002 kPa, x2 = 0.4997
  mass density: 3.349 ± 0.029 kg/m3
324.96 K, 1999 kPa, x2 = 0.9
  mass density: 11.036 ± 0.037 kg/m3
324.96 K, 2003 kPa, x2 = 0.4997
  mass density: 6.689 ± 0.03 kg/m3
324.96 K, 2987 kPa, x2 = 0.4997
  mass density: 9.973 ± 0.031 kg/m3
324.96 K, 2999 kPa, x2 = 0.9
  mass density: 16.7 ± 0.038 kg/m3
324.96 K, 4000 kPa, x2 = 0.9
  mass density: 22.453 ± 0.039 kg/m3
324.96 K, 4001 kPa, x2 = 0.4997
  mass density: 13.346 ± 0.032 kg/m3
324.96 K, 4999 kPa, x2 = 0.9
  mass density: 28.286 ± 0.04 kg/m3
324.96 K, 5001 kPa, x2 = 0.4997
  mass density: 16.663 ± 0.033 kg/m3
324.96 K, 6000 kPa, x2 = 0.9
  mass density: 34.198 ± 0.041 kg/m3
324.96 K, 6001 kPa, x2 = 0.4997
  mass density: 19.966 ± 0.035 kg/m3
324.96 K, 6999 kPa, x2 = 0.9
  mass density: 40.162 ± 0.042 kg/m3
324.96 K, 7000 kPa, x2 = 0.4997
  mass density: 23.25 ± 0.037 kg/m3
324.96 K, 8002 kPa, x2 = 0.4997
  mass density: 26.528 ± 0.039 kg/m3
324.96 K, 8004 kPa, x2 = 0.9
  mass density: 46.209 ± 0.042 kg/m3
324.96 K, 8999 kPa, x2 = 0.4997
  mass density: 29.768 ± 0.042 kg/m3
324.96 K, 9000 kPa, x2 = 0.9
  mass density: 52.245 ± 0.043 kg/m3
324.96 K, 9001 kPa, x2 = 0.9499
  mass density: 55.531 ± 0.045 kg/m3
324.96 K, 9926 kPa, x2 = 0.4997
  mass density: 32.763 ± 0.045 kg/m3
